Source: article PMC10905588 (ACS Omega, 2024)
Read-outs that look alike come from different tables or passages of the source. Marks after values point to notes of the source that are not given here.

How the values were obtained:
[1] = test system: STZ-induced diabetic rat model; conditions: during the course of 0–300 min; cited from earlier work
[2] = molecular target: T1, α-glucosidase (Saccharomyces cerevisiae, UniProt P53341); conditions: read-out: IC50 α-glucosidase; cited from earlier work
T1 sequence (P53341 whole entry): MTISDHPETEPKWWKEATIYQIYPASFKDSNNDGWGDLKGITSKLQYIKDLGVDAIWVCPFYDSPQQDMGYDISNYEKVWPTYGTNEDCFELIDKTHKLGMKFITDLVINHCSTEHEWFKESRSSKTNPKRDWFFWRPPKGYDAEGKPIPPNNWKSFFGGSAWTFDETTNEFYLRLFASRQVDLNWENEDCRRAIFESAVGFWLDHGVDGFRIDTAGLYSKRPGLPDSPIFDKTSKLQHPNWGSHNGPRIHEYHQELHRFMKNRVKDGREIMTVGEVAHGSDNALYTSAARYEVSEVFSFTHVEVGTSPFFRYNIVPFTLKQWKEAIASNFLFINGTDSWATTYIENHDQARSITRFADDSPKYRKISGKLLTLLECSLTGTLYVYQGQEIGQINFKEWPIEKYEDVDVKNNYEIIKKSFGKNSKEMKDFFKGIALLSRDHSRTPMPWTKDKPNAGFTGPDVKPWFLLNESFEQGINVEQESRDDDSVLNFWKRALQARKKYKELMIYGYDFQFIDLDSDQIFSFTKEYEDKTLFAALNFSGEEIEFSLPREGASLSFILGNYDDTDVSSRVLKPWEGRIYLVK

[3] = molecular target: T2, α-amylase (Homo sapiens, UniProt P04746); conditions: read-out: IC50 α-amylase; cited from earlier work
T2 sequence (P04746 16-511): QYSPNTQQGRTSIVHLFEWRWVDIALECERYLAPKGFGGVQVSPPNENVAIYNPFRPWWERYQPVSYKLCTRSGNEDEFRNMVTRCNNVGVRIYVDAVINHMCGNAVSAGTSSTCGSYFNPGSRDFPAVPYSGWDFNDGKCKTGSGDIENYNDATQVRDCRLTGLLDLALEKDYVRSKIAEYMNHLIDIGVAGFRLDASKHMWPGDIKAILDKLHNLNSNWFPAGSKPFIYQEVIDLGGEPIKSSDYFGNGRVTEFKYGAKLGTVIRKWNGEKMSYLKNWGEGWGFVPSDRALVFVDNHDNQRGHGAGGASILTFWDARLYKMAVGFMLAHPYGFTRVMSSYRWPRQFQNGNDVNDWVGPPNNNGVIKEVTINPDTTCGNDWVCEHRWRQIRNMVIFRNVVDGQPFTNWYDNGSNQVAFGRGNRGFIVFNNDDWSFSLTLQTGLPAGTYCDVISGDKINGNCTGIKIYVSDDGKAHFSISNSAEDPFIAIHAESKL

[4] = test system: streptozotocin (STZ)-induced diabetic rat model; test: kidney and liver function tests in STZ-induced diabetic rats; assay type: in vivo, Wistar rats; conditions: serum, 28th day; 12 mg/kg oral (glibenclamide 0.5 mg/kg); mean ± SEM, n = 8
[5] = test system: streptozotocin (STZ)-induced diabetic rat model; test: serum lipid profile in STZ-induced diabetic rats; assay type: in vivo, Wistar rats; conditions: 28th day, 12 mg/kg oral (glibenclamide 0.5 mg/kg), mean ± SEM, n = 8
[6] = test system: streptozotocin (STZ)-induced diabetic rat model; test: blood glucose level in STZ-induced diabetic rats; conditions: WA1-WA3 12 mg/kg oral, glibenclamide 0.5 mg/kg; mean ± SEM, n = 8
[7] = acute toxicity study; assay type: in vivo
[8] = molecular target: T2, α-amylase; test: in-vitro α-amylase inhibitory activity; assay type: biochemical
[9] = test system: streptozotocin (STZ)-induced diabetic rat model; test: glycated hemoglobin; conditions: for HbA1c (%): Table 4: dose printed 6 mg/kg for WA1-WA3, 0.5 mg/kg glibenclamide, n = 8; for HbA1c level: text: WA1, WA2, WA3 at 12 mg/kg, diabetic control 10.12%
[10] = body weight of STZ-induced diabetic rats; conditions: WA1-WA3 12 mg/kg; mean ± SEM, n = 8
[11] = molecular target: T1, α-glucosidase; test: in-vitro α-glucosidase inhibitory activity; assay type: biochemical

Structure (SMILES) | lowering of blood glucose levels [1] | kidney: creatinine [4] | kidney: urea [4] | liver: ALP [4] | liver: ALT [4] | liver: AST [4] | HDL [5] | LDL [5] | TC (total cholesterol) [5] | TG (triglycerides) [5] | blood glucose level, day 1st [6] | blood glucose level, day 7th [6] | blood glucose level, day 14th [6] | blood glucose level, day 21st [6] | blood glucose level, day 28th [6] | HbA1c (%) [9] | HbA1c level [9] | body weight, 1st day [10] | body weight, 7th day [10] | body weight, 14th day [10] | further results
COc1cc2[nH]c3c4c(c(C)cc3c2cc1OC)OC(C)(C)C=C4 [koenidine] | ~22.5% | – | – | – | – | – | – | – | – | – | – | – | – | – | – | – | – | – | – | – | –
CC(C)=CCCC1(C)C=Cc2c(c(C)cc3c2[nH]c2ccccc23)O1 (stereo not drawn) [mahanimbine] | – | – | – | – | – | – | – | – | – | – | – | – | – | – | – | – | – | – | – | – | IC50 [2]: 299 µM; IC50 [3]: 250 µM
COc1ccc2c(c1)[nH]c1c3c(c(C)cc12)OC(C)(C)C=C3 [O-methylmurrayamine A] | roughly 24.6% | – | – | – | – | – | – | – | – | – | – | – | – | – | – | – | – | – | – | – | –
COc1ccc2cc3[n+](cc2c1OC)CCc1cc2c(cc1-3)OCO2 [WA1, berberine] | – | 1.07 ± 0.06 mg/dL | 47.30 ± 1.51 mg/dL | 145.69 ± 3.78 U/L | 88.30 ± 2.45 U/L | 71.16 ± 1.79 U/L | 35.11 ± 1.66 mg/dL | 56.33 ± 2.79 mg/dL | 92.67 ± 4.81 mg/dL | 112.17 ± 3.10 mg/dL | 460.11 ± 5.17 mg/dL | 376.70 ± 4.98 mg/dL | 268.21 ± 5.79 mg/dL | 176.33 ± 4.69 mg/dL | 133.01 ± 5.18 mg/dL | 7.55*** % | 7.55% | 183.77 ± 5.01 | 180.33 ± 4.91 | 178.16 ± 4.96 | nontoxic up to (acute toxicity profile) ([7]; oral doses 5-500 mg/kg b.w., observed up to 14 days): up to 500 mg/kg; behavior in acute toxicity profile ([7]; up to 500 mg/kg (b.w.)): normal behavior; IC50 [8]: 200 µM; body weight, 21st day [10]: 174.80 ± 4.77; body weight, 28th day [10]: 170.88 ± 4.84; IC50 [11]: 569 µM
COc1ccc(Cl)cc1C(=O)NCCc1ccc(S(=O)(=O)NC(=O)NC2CCCCC2)cc1 [glibenclamide, reference compound] | – | 1.01 ± 0.07 mg/dL | 40.17 ± 1.90 mg/dL | 133.67 ± 3.71 U/L | 71.43 ± 2.13 U/L | 55.03 ± 1.94 U/L | 39.64 ± 1.51 mg/dL | 40.17 ± 1.80 mg/dL | 84.31 ± 4.95 mg/dL | 102.97 ± 3.69 mg/dL | 458.12 ± 6.15 mg/dL | 349.36 ± 4.98 mg/dL | 248.70 ± 6.96 mg/dL | 138.49 ± 4.86 mg/dL | 102.19 ± 5.11 mg/dL | 6.91*** % | 6.91% | 184.11 ± 5.15 | 183.91 ± 4.87 | 189.16 ± 5.13 | body weight, 21st day [10]: 187.63 ± 4.86; body weight, 28th day [10]: 194.37 ± 4.90
CN(C)C(=N)N=C(N)N [metformin, reference compound] | 25.9% | – | – | – | – | – | – | – | – | – | – | – | – | – | – | – | – | – | – | – | –
